For 2 molecules, inhibition and IC50 results are on record in article PMC9661696, “Inhibition of β-Amyloid Aggregation in Alzheimer’s Disease: The Key Role of (Pro)electrophilic Warheads” (ACS Medicinal Chemistry Letters, 2022).

Test [1] deals with T1, Aβ42 (β-amyloid peptide) (Homo sapiens, UniProt P05067).
T1 construct: gene APP; Aβ42
Nature of the test: inhibition of Aβ[…] self-aggregation, MS monomer quantification at […] (also ThT assay). Type of test: biochemical. As to conditions: read-out: inhibition of Aβ42 self-aggregation / % inhibition by MS ± SD [I] = 50 μM ^b.

For test [2], the target named is T1, Aβ42 (β-amyloid peptide). Put plainly: MS and LC-MS/MS detection of covalent adduct with Aβ[…]; ThT aggregation assay (IC50). Type of test: biochemical.

T1 sequence (P05067 672-713): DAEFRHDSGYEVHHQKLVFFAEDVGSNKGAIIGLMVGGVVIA

`CCCSC(=O)/C=C/c1ccc(O)c(O)c1` [compound 1]: at Aβ42 (β-amyloid peptide) [1], the inhibition at 50 µM stood at 56.9%.
Consider `CCCSC(=O)/C=C/c1cc(O)ccc1O` [compound 3, para-hydroquinone 3], for which the IC50 at Aβ42 (β-amyloid peptide) [2] worked out at 10.2 µM.

Usually IC50 stands for the concentration needed to halve the response being measured. Read a low IC50 as inhibition by little substance.
